This is an account of results in ChEMBL document CHEMBL1152277, “Lead optimization of 4-acetylamino-2-(3,5-dimethylpyrazol-1-yl)-6-pyridylpyrimidines as A2A adenosine receptor antagonists for the treatment of Parkinson's disease” (J Med Chem, 2008).

Values after ≈ are worked out from the molar mass of the structure shown. Active and inactive are the calls of the source. The rule behind the calls is not given here.

The target in data set [1] is Voltage-gated inwardly rectifying potassium channel KCNH2 (Homo sapiens, UniProt Q12809). Briefly: Inhibition of human ERG by electrophysiology assay.
Voltage-gated inwardly rectifying potassium channel KCNH2, sequence (Q12809 whole entry): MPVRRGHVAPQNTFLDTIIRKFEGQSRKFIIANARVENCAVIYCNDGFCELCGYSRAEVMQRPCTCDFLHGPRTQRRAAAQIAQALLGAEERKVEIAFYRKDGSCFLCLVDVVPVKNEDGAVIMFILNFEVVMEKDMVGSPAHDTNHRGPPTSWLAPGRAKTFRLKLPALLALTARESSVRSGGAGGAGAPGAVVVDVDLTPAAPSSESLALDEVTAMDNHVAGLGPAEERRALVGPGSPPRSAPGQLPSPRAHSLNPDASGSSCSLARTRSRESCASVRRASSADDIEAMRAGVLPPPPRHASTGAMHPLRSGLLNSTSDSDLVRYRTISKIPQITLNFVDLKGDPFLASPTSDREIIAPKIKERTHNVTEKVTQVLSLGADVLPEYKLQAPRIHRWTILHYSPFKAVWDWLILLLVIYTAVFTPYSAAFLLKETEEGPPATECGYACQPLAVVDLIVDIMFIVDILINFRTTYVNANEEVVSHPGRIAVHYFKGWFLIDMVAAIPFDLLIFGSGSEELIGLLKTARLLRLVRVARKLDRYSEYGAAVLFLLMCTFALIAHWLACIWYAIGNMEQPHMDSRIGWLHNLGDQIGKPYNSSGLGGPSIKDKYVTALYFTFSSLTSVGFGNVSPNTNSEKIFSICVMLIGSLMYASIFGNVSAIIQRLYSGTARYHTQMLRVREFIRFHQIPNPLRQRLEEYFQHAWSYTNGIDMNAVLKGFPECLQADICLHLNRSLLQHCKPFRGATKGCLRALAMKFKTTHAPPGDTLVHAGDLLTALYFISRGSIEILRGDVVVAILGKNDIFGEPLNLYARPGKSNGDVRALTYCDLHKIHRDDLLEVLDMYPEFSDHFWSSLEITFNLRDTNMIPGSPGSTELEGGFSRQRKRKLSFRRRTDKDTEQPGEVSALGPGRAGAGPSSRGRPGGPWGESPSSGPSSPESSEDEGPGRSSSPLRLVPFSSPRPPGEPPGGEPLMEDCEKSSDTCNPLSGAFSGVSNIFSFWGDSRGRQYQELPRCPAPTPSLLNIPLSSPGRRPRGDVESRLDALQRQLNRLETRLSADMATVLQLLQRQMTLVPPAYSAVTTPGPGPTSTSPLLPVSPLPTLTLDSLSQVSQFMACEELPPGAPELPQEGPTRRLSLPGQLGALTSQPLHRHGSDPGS
Data set [2] relates to Rattus norvegicus. Briefly: Inhibition of haloperidol-induced catalepsy in rat at 3 mg/kg, po. On the set-up: dose 3 mg/kg. The format is functional, organism-based.
Data set [3] in a line: Metabolic stability in human liver microsomes assessed as intrinsic clearance by LC-MS/MS analysis. In kind it is ADME, Microsome. (Liver microsomes are vesicles of endoplasmic reticulum, rich in cytochrome P450 enzymes.)
Data set [4] is described as follows: Metabolic stability in rat liver microsomes assessed as intrinsic clearance by LC-MS/MS analysis. The format is ADME, Microsome.
Data set [5] relates to Rattus norvegicus. Briefly: Inhibition of haloperidol-induced catalepsy in rat at 10 mg/kg, po after 2 hrs. In kind it is functional. More on the design: scale not given: the % may be the effect or the level left.
For data set [6], the system named is Rattus norvegicus. Briefly: Inhibition of haloperidol-induced catalepsy in rat at 1 mg/kg, po. On the set-up: dose 1 mg/kg. The format is functional, organism-based.
Data set [7] concerns the target T1, Cytochrome P450 3A4 (Homo sapiens, UniProt P08684).
Description: Inhibition of CYP3A4 in human liver microsomes by LC-MS/MS analysis
For data set [8], the species on record is Rattus norvegicus. Briefly: Inhibition of haloperidol-induced catalepsy in rat assessed as minimal effective dose. In kind it is functional. To be noted: read-out: MED.
Another data set is filed under the species Homo sapiens. Kind of data set: Selectivity ratio of Ki for human adenosine A1 receptor to Ki for human adenosine A2A receptor.
Data set [9] deals with T2, Adenosine receptor A2a (Homo sapiens, UniProt P29274). Kind of data set: Antagonist activity at human adenosine A2A receptor expressed in CHO cells assessed as inhibition of CGS-21680-induced cAMP production. In kind it is functional, cell-based. (In general: cAMP levels reflect the balance of adenylyl cyclase and phosphodiesterase activity.)
T2 sequence (P29274 whole entry): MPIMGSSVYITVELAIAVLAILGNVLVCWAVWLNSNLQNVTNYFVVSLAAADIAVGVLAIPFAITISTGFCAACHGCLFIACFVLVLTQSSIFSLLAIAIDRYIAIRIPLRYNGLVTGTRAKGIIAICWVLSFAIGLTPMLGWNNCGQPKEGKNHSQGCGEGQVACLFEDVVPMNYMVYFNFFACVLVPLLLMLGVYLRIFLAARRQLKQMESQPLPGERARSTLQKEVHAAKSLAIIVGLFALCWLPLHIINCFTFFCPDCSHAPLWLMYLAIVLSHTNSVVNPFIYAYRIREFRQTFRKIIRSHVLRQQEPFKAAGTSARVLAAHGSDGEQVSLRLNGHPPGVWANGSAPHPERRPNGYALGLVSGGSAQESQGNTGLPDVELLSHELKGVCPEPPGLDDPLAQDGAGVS
The nature of data set [10]: Aqueous solubility at pH >= […]. In kind it is physicochemical. To be noted: buffer.
The target of another data set is T3, Adenosine receptor A1 (Homo sapiens, UniProt P30542).
T3 sequence (P30542 whole entry): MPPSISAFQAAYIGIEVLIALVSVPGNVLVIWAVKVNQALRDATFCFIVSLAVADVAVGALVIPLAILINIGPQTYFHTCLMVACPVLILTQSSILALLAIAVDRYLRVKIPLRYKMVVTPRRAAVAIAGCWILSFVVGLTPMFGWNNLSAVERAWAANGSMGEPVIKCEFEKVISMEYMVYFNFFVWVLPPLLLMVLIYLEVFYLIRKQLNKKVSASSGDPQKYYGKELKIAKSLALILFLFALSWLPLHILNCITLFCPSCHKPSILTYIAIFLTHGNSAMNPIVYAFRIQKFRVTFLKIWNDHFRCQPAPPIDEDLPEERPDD
Kind of data set: Displacement of [3H]DPCPX from human adenosine A1 receptor expressed in HEK293 cells. The format is cell-based. (Displacement assays read how much labelled ligand stays bound in the presence of the test substance.)

In data set [11] the target is T2, Adenosine receptor A2a. Briefly: Displacement of [3H][…] from human adenosine A2A receptor expressed in HEK293 cells. The format is cell-based.
The nature of data set [12]: AUC (0 to 24 hrs) in rat plasma at 10 mg/kg, po. The format is ADME, organism-based. On the set-up: time < 24 hr, dose 10 mg/kg, route oral.
For data set [13], the target named is Adenosine receptor A2a (Rattus norvegicus, UniProt P30543). Briefly: Displacement of [3H][…] from rat adenosine A2A receptor expressed in CHO cells. In kind it is cell-based.
Adenosine receptor A2a (Rattus norvegicus, UniProt P30543), sequence (P30543 whole entry): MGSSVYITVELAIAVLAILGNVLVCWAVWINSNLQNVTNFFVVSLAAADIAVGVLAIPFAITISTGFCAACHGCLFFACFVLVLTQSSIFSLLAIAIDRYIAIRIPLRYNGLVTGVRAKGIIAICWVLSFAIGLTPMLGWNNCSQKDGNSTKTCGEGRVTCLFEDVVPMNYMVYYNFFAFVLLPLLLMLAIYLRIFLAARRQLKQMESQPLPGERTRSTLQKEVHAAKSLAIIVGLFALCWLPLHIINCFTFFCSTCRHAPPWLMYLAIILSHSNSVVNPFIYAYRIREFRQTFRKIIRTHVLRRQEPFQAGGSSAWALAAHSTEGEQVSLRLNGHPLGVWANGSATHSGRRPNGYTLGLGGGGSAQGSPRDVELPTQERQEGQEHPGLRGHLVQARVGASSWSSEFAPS
Data set [14] has as its target T1, Cytochrome P450 3A4. Briefly: Inhibition of recombinant CYP3A4-catalyzed dealkylation of BFC assessed as formation of 7HFC by microplate fluorescence technique. In kind it is ADME. As to conditions: recombinant enzyme.
Data set [15] is described as follows: Dissociation constant, pKa of the compound. The format is physicochemical.
The nature of data set [16]: Plasma concentration in rat at 10 mg/kg, po after 2 hrs. The format is ADME, organism-based. More on the design: dose 10 mg/kg, route oral.
Data set [17] is described as follows: Drug concentration in rat brain at 10 mg/kg, po after 2 hrs. In kind it is ADME, organism-based. On the set-up: dose 10 mg/kg, route oral. To be noted: read-out: Drug uptake.
Data set [18] can be described thus: Aqueous solubility in phosphate-buffered saline at pH 7.4. The format is physicochemical.
Data set [19] can be described thus: Solubility at pH 3.7. The format is physicochemical. As to conditions: buffer.
For data set [20], the system named is Rattus norvegicus. Kind of data set: Potentiation of L-dopa-induced rotational behavior in unilaterally 6-hydroxydopamine-lesioned po dosed Wistar rat assessed as minimal effective dose pretreated 30 mins before L-dopa challenge measured over 5 hrs. In kind it is functional. To be noted: read-out: MED.
For a further data set, the system named is Liver microsomes. Kind of data set: Induction of glutathione adducts formation in human liver microsomes. On the set-up: species or system Microsome.
A short description of data set [21]: AUC ((0 to 24 hrs)) in dog at 30 mg/kg, po. In kind it is ADME, organism-based, Canis lupus familiaris. More on the design: time < 24 hr, dose 30 mg/kg, route oral. To be noted: plasma.
Data set [22] can be described thus: AUC ((0 to 24 hrs)) in mouse at 300 mg/kg, po. In kind it is ADME, organism-based. On the set-up: time < 24 hr, dose 300 mg/kg, route oral. To be noted: plasma.
The subject of data set [23] is Rattus norvegicus. Briefly: Potentiation of L-dopa-induced rotational behavior in unilaterally 6-hydroxydopamine-lesioned po dosed Wistar rat pretreated 30 mins before L-dopa challenge measured over 5 hrs. The format is functional, organism-based.
The nature of data set [24]: Drug concentration in rat brain at 30 mg/kg, po after 2 hrs. The format is ADME, organism-based. On the set-up: dose 30 mg/kg, route oral. To be noted: read-out: Drug uptake.
Data set [25] can be described thus: Plasma concentration in rat at 30 mg/kg, po after 2 hrs. In kind it is ADME, organism-based. More on the design: dose 30 mg/kg, route oral.
For data set [26], the system named is Rattus norvegicus. Kind of data set: Inhibition of haloperidol-induced catalepsy in rat at 30 mg/kg, po after 2 hrs. The format is functional.
Data set [27] can be described thus: Permeability across MDCK cell membrane by cell-based MDR assay. The format is ADME, Canis lupus familiaris. To be noted: dog, MDCK-MDR1; read-out: permeability.

T1 sequence (P08684 whole entry): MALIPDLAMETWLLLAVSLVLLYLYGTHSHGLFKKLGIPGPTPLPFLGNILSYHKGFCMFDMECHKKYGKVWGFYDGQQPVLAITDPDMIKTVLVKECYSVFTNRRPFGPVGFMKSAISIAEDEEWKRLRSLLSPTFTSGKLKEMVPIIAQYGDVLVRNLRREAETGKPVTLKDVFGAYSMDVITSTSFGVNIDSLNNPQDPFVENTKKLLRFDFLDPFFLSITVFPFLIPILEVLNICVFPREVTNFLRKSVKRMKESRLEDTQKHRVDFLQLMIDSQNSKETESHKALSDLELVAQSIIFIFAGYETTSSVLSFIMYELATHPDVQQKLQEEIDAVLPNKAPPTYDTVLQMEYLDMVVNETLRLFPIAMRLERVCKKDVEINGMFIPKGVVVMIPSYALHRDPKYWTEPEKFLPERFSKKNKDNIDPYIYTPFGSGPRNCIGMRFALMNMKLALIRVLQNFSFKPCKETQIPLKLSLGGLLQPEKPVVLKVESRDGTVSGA

For orientation: IC50 means the concentration at which inhibition is half-maximal. As a reminder, the CLint scaled is the rate of metabolic loss divided by the concentration. One may read the solubility as how much of the substance goes into solution per volume. The Ki is the equilibrium dissociation constant of an inhibitor or competing ligand from its target. The term AUC(0-t) denotes exposure summed from dosing to a finite time, without extrapolation to infinity. For the compound `COc1cncc(-c2cc(NC(C)=O)nc(-n3nc(C)cc3C)n2)c1`, the IC50 in data set [1] was found to be 24000 nM; against Cytochrome P450 3A4 [7], 18000 nM; at Adenosine receptor A2a [9] it was 57 nM. Besides, the outcome in the data set on Rattus norvegicus [2] and with Rattus norvegicus [6] was Active. The CLint scaled in [3] is 35 mL/min/kg; in data set [4], 120 mL/min/kg. In the data set with Rattus norvegicus [5], this compound had an Activity of 64%. In addition, the minimal effective dose in the data set listed under Rattus norvegicus [8] was 1 mg/kg. Moreover, the Ratio Ki in the data set filed under Homo sapiens is 82. In addition, in [10], the solubility is < 10 µg/mL. Moreover, the results for the Ki on Adenosine receptor A1, at Adenosine receptor A2a [11] and at Adenosine receptor A2a [13] were 190 nM, 2.3 nM and 62 nM, respectively. Also, in [12], the AUC(0-t) at 24 h is 1430 ng·h/mL.
As usually defined, the pKa is the pH at which an ionisable group is half protonated. `CC(=O)Nc1cc(-c2cccc(N3CCOCC3)n2)nc(-n2nc(C)cc2C)n1`: the Activity entry is given as “Not Active” at Cytochrome P450 3A4 [14], “Not Active” in [1] (human) and 55% in the data set on Rattus norvegicus [5]. This compound registered a pKa in data set [15] of 2.9. The CLint scaled was 3 mL/min/kg in data set [3] and 25 mL/min/kg in data set [4]. Also, the concentration at 2 h in data set [16] worked out at 150 ng/mL; in [17], 170 ng/g. For the same compound, the figures for the IC50 against Cytochrome P450 3A4 [7] and at Adenosine receptor A2a [9] were > 20000 nM and 13 nM, respectively. In addition, the minimal effective dose in the data set listed under Rattus norvegicus [8] turned out to be 3 mg/kg. Also, in the data set filed under Homo sapiens, the Ratio Ki is 155. Also, the solubility in data set [18] is 140 µg/mL (≈ 356 µM). The Ki was 130 nM on Adenosine receptor A1, 0.83 nM on Adenosine receptor A2a [11] and 10 nM at Adenosine receptor A2a [13].
As to `COC1CCN(c2cccc(-c3cc(NC(C)=O)nc(-n4nc(C)cc4C)n3)n2)CC1`, the results for the CLint scaled in [3] and in data set [4] were 41 mL/min/kg and 540 mL/min/kg, respectively. Moreover, the Activity with Rattus norvegicus [5] was 88%; with Liver microsomes, “Not Active”; in the data set on Rattus norvegicus [23], “Dose-dependent effect”. The result in the data set on Rattus norvegicus [6] was Active. This compound returned a solubility in [19] of 1000 µg/mL (≈ 2370 µM). Moreover, the minimal effective dose was determined as 3 mg/kg in the data set on Rattus norvegicus [20] and 1 mg/kg in the data set filed under Rattus norvegicus [8]. Also, the AUC(0-t) at 24 h in [21] turned out to be 3400 ng·h/mL; in data set [22] it was 25700 ng·h/mL. Also, the Ki at Adenosine receptor A1 worked out at 85 nM; on Adenosine receptor A2a [11] it was 0.44 nM.
A word on the inhibition in vivo: it is the share of the control response that was lost under treatment. In the case of `CC(=O)Nc1cc(-c2cccc(N3CCC(O)CC3)n2)nc(-n2nc(C)cc2C)n1`, the CLint scaled in data set [3] amounted to 43 mL/min/kg; in data set [4], 230 mL/min/kg. In addition, the concentration at 2 h in data set [24] came to 91 ng/g; in data set [25] it was 180 ng/mL; in data set [16], 16 ng/mL; in data set [17], 9 ng/g. In the data set on Rattus norvegicus [26], this compound returned an inhibition in vivo at 30 mg/kg of 90%. In addition, the IC50 against Cytochrome P450 3A4 [7] is > 20000 nM; at Adenosine receptor A2a [9], 22 nM. In addition, the minimal effective dose in the data set listed under Rattus norvegicus [8] turned out to be 30 mg/kg. In addition, in the data set filed under Homo sapiens, the Ratio Ki was determined as 247. The compound further registered a solubility in data set [18] of 200 µg/mL (≈ 491 µM). Moreover, the inhibitory constant (Ki) was determined as 470 nM at Adenosine receptor A1, 1.9 nM at Adenosine receptor A2a [11] and 10 nM at Adenosine receptor A2a [13].
The compound `CC(=O)Nc1cc(-c2cccc(N3CCN(C)CC3)n2)nc(-n2nc(C)cc2C)n1` returned a pKa in data set [15] of 7.6. Also, the IC50 in [1] is 540 nM; at Cytochrome P450 3A4 [7], > 20000 nM; at Adenosine receptor A2a [9], 7 nM. For the same compound, the CLint scaled in [3] was found to be 3 mL/min/kg; in data set [4], 25 mL/min/kg. Also, in the data set with Rattus norvegicus [26], the outcome was inactive. The concentration at 2 h in data set [16] was determined as 53 ng/mL; in [17], 91 ng/g. Further, the Papp in data set [27] stood at 15.4 ×10⁻⁶ cm/s. In addition, the Ratio Ki in the data set filed under Homo sapiens stood at 175. The compound further had a solubility in data set [18] of 240 µg/mL (≈ 590 µM). The Ki at Adenosine receptor A1 was found to be 120 nM; at Adenosine receptor A2a [11], 0.71 nM; on Adenosine receptor A2a [13] it was 7 nM.
